Test results published in PMC5519620 (Frontiers in Cellular Neuroscience, 2017).
“Also recorded” adds a separate entry of the source.

Assays:
mouse α9α10 nAChR = mouse α9α10 nAChR (Mus musculus, UniProt B2RX82+G3X8Z7); assay: Agonist activation of mouse α9α10 nAChRs in Xenopus oocytes (two-electrode voltage clamp); type: biochemical; details: for Hill slope for activation / EC50: 95% confidence interval in parentheses, ACh n = 5, choline n = 4; for agonist behaviour (words): oocyte two-electrode voltage clamp, nicotine 100 nM to 10 mM; for EC50: oocytes, holding potential −70 mV
Experimental: X. laevis oocytes were injected with 25 ng of each cRNA encoding α9 and α10 subunits as previously described (Cartier et al., [1996]) and incubated for 48 h at 17°C in ND96 prior to use. Two-electrode voltage clamp electrophysiology was conducted to assess for functional expression of α9α10 nAChRs as previously described (Azam et al., [2008]). The oocyte membranes were clamped at a holding potential of −70 mV and stimulated with 1 s pulses of 1 mM ACh once every 60 s. After a steady-state response baseline was observed, the oocytes were then stimulated with ascending concentrations of ACh, choline, or nicotine. Each oocyte was stimulated first with ACh followed by choline then nicotine. The maximal response value for activation by ACh was determined using the Hill equation: Y = Bottom + (Top-Bottom)/(1+10^∧((LogEC50−X)*Hill slope)). The responses to all concentrations of ACh, choline, and nicotine were then normalized to this value and calculated as a % response.

α9α10 nAChR = details: MLA and α-bungarotoxin; no reference given; cited from earlier work
α9* nAChRs of monocytes = details: ref Hecker et al., 2015; Richter et al., 2016; Backhaus et al., 2017; cited from earlier work
CBA/CaJ mice = details: mouse, in vivo

Chain of mouse α9α10 nAChR (G3X8Z7 23-479): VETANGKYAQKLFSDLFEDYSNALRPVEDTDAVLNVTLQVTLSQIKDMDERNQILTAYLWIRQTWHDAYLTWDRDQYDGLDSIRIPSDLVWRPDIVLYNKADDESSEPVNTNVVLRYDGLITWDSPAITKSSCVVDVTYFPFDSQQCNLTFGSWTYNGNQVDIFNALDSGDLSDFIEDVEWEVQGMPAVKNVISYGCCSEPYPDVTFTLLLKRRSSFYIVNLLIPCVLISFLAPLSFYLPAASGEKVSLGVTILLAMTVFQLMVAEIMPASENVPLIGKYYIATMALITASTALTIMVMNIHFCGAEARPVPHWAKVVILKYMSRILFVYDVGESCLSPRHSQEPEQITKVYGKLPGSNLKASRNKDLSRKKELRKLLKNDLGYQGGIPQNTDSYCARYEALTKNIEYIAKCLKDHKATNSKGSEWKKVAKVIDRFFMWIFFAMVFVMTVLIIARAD
Chain of mouse α9α10 nAChR (B2RX82 25-447): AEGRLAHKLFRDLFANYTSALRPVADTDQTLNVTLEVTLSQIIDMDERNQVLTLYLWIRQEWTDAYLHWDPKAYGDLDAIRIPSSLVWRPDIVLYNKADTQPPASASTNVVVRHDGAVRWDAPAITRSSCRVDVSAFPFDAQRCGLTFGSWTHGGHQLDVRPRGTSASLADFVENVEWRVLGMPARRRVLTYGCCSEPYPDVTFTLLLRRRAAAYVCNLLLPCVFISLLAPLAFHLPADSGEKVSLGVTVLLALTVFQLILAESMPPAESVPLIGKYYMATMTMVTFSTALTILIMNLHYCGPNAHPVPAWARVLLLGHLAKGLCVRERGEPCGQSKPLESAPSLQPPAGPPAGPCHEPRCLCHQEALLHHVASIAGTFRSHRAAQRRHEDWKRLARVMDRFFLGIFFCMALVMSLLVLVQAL

SMILES: CC(=O)OCC[N+](C)(C)C [ACh, acetylcholine]
- ACh-evoked current amplitude (mouse α9α10 nAChR; 1 mM ACh): > 10 μA
- Hill slope for activation (mouse α9α10 nAChR): 1.1 (0.8–1.4)
- agonist behaviour (words) (mouse α9α10 nAChR): activated; also recorded: induced robust currents
- EC50 (mouse α9α10 nAChR): 30.1 µM

SMILES: C[N+](C)(C)CCO [choline]
- Hill slope for activation (mouse α9α10 nAChR): 1.3 (0.5–2.1)
- agonist behaviour (words) (mouse α9α10 nAChR): activated
- agonist behaviour (words) (mouse α9α10 nAChR; listed as Choline): behaved as a partial agonist relative to ACh; also recorded: potently activated α9α10 nAChRs
- EC50 (mouse α9α10 nAChR): 601 µM

SMILES: CCN1C[C@]2(COC(=O)c3ccccc3N3C(=O)C[C@H](C)C3=O)CC[C@H](OC)[C@@]34[C@@H]5C[C@H]6[C@H](OC)[C@@H]5[C@](O)(C[C@@H]6OC)[C@@](O)([C@@H](OC)[C@H]23)[C@@H]14 [methyllycaconitine (MLA), methyllycaconitine]
- α9α10 nAChR block (α9α10 nAChR): potently block α9α10 nAChRs

SMILES: CN1CCC[C@H]1c1cccnc1 [nicotine]
- evoked current (% response relative to ACh maximum) (mouse α9α10 nAChR; n = 4, nicotine): 0.4 ± 0.2%
- agonist behaviour (words) (mouse α9α10 nAChR): not by nicotine; also recorded: did not activate Xenopus oocyte-expressed mouse α9α10 nAChRs
- agonist behaviour (words) (mouse α9α10 nAChR; listed as Nic): failed to evoke currents at concentration from 100 nM to 10 mM
- agonist behaviour (words) (mouse α9α10 nAChR; listed as Nicotine): failed to evoke currents in all oocytes tested
- Agonist action on monocyte α9* nAChRs (α9* nAChRs of monocytes): act as an agonist of α9^* nAChRs in immune cell monocytes

SMILES: O=C1[O][Pt]2([NH][C@@H]3CCCC[C@H]3[NH]2)[O]C1=O [oxaliplatin]
- Oxaliplatin-induced cold allodynia (CBA/CaJ mice): produced cold allodynia, an effect that significantly differed from control beginning by week three and continuing for 2 weeks post-oxaliplatin treatment
